For orientation: mass density means mass per unit of volume. Broadly, the vapor or sublimation pressure is the equilibrium pressure above the liquid or solid.

Consider six compounds from the NIST ThermoML archive (doi:10.1021/je700408x).

Molecules are shown by their SMILES. Numbers after ± are expanded uncertainties.

For this data set the following is noted: Liquid; for mass density: 303.15 K, 101.33 kPa, Pycnometric method; for vapor or sublimation pressure / Normal boiling temperature: Ebulliometric method (Recirculating still).

For the compound `CC(Cl)(Cl)Cl` [1,1,1-trichloroethane], the mass density is listed as 1320.97 ± 9.8 kg/m3 and the Normal boiling temperature amounted to 74.20 ± 0.41 °C. For the same compound, the “vapor or sublimation pressure” value (345.45 K) was found to be 95.3 ± 2 kPa.
As for `ClC(Cl)C(Cl)Cl` [1,1,2,2-tetrachloroethane], the mass density worked out at 1578.59 ± 14 kg/m3 and the Normal boiling temperature amounted to 145.20 ± 0.41 °C. Also, for the setting “417.05 K”, the “vapor or sublimation pressure” value is recorded as 95.3 ± 2 kPa.
As for `ClCCCl` [1,2-dichloroethane], the mass density worked out at 1238.41 ± 8.6 kg/m3 and the Normal boiling temperature came to 83.80 ± 0.41 °C. In addition, where the note is “355.05 K”, the “vapor or sublimation pressure” value was determined as 95.3 ± 2 kPa.
For `C[S+](C)[O-]` [dimethyl sulfoxide], the mass density is on record as 1090.4 ± 6.7 kg/m3 and the Normal boiling temperature amounted to 189.04 ± 0.41 °C. Moreover, the “vapor or sublimation pressure” value (460.95 K) turned out to be 95.3 ± 2 kPa.
Consider `ClC(Cl)=C(Cl)Cl` [tetrachloroethene], for which the mass density is 1606.39 ± 14 kg/m3 and the Normal boiling temperature was 121.00 ± 0.41 °C. Also, the “vapor or sublimation pressure” value (391.95 K) stood at 95.3 ± 2 kPa.
In the case of `ClC=C(Cl)Cl` [trichloroethene], the mass density is recorded as 1451.42 ± 12 kg/m3 and the Normal boiling temperature amounted to 87.10 ± 0.41 °C. Also, the “vapor or sublimation pressure” value (357.75 K) is 95.3 ± 2 kPa.
